The values below are quoted from earlier work in patent US20160021884A1, “STABLE SOLUTIONS OF 1,2-BENZISOTHIAZOLIN-3-ONE” (TITAN CHEMICALS LIMITED, priority 2014, published 2016).

The conditions of the data set: 5° C., 4 weeks.

On to `O=c1[n-]sc2ccccc12.[Li+]` [lithium salt of BIT], for which the “Stability of purely aqueous solution” value was “stable at 5 °C for 4 weeks”.
